Laboratory results: patent US10407467B2, “Polymyxin derivatives and their use in combination therapy together with different antibiotics” (priority 2013, dated 2019)
Where a name gives a salt, the structure may show the parent alone. Numbered stars: 1 amine (or outer) side, 2 acyl side, 3 side chain; on linkers, the order of the positions; unused ones are H or OH. Bridge positions count the residues as written; N and C are the ends. Square brackets hold non-standard residues; d marks the D form. Peptide text beside a SMILES is read from it. * marks the point of attachment. ξ: configuration not given here. Cyclohexanoyl(cis-4-NH2) = N[C@H]1CC[C@@H](C(=O)*)CC1; GABA(4S-Me) = C[C@@H](CCC(=O)[*:2])N[*:1]; NMeGABA = CN(CCCC(=O)[*:2])[*:1]; X8 = N[C@@H]1CC[C@H](C(=O)*)C1; Thr(3ξ) = CC(O)[C@H](N)C(=O)O; Propanoyl(3-OH) = O=C(CCO)*; Dab = NCC[C@H](N)C(=O)O; X16 = CN(C)CCCC(=O)*; Glycolyl = O=C(CO)*; X15 = O=C(C1CCNC1)*

Key:
Assay type in all cases: cell-based
[1] = system: Pseudomonas aeruginosa; assay: MIC, compound in combination with a second agent (broth microdilution); conditions: 1:1 (wt:wt) combination with Rifampicin, MIC = total drug concentration; for MIC P. aeruginosa CCUG 59626: strain CCUG 59626; for MIC P. aeruginosa ATCC CRM-9027: strain ATCC CRM-9027
How it was run: (§1)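 Broth microdilution with inoculum from 18-24 h Mueller-Hinton agar colonies adjusted to 0.5 McFarland, up to four strains per species. Compound combined 1:1 w/w with second agent (e.g. rifampicin), mass as salt form; MIC is total drug concentration. Duplicates, lower value reported if within 2-fold; modal value for repeat tests.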

[2] = system: Acinetobacter baumannii; assay: as above; conditions: 1:1 (wt:wt) combination with Rifampicin, MIC = total drug concentration; for MIC A. baumannii NCTC 13424: strain NCTC 13424
How it was run: as §1

[3] = system: Klebsiella pneumoniae; assay: as above; conditions: 1:1 (wt:wt) combination with Rifampicin, MIC = total drug concentration; for MIC K. pneumoniae ATCC-BAA-2146: strain ATCC-BAA-2146; for MIC K. pneumoniae CCUG-59348: strain CCUG-59348; for MIC K. pneumoniae NCTC 13438: strain NCTC 13438
How it was run: as §1

[4] = system: Escherichia coli; assay: MIC, sole activity (no second agent); conditions: in the absence of Rifampicin; strain ATCC25922
How it was run: (§2)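 Compound tested without a second agent in cation-adjusted MHB, up to four strains per species, inoculum at 0.5 McFarland from colonies grown 18-24 h on Mueller-Hinton agar. Run in duplicate, invalid beyond 2-fold disagreement, lower duplicate or modal repeat value given, expressed relative to Polymyxin B.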

[5] = system: Pseudomonas aeruginosa; assay: MIC, sole activity (no second agent); conditions: in the absence of Rifampicin; for MIC P. aeruginosa ATCC 27853: strain ATCC27853; for MIC P. aeruginosa ATCCCRM-9027: strain ATCCCRM-9027
How it was run: as §2

[6] = system: Klebsiella pneumoniae; assay: MIC, sole activity (no second agent); conditions: in the absence of Rifampicin; strain ATCC 4352
How it was run: as §2

[7] = system: Escherichia coli; assay: MIC, compound in combination with a second agent (broth microdilution); conditions: 1:1 (wt:wt) combination with Rifampicin, MIC = total drug concentration; for MIC E. coli ATCC25922: strain ATCC25922
How it was run: as §1

[8] = system: Acinetobacter baumannii; assay: MIC, sole activity (no second agent); conditions: in the absence of Rifampicin; for MIC A. baumannii ATCCBAA-747: strain ATCCBAA-747; for MIC A. baumannii NCTC 13423: strain NCTC13423
How it was run: as §2

Compound	MIC P. aeruginosa CCUG 59626 [1]	MIC A. baumannii NCTC 13424 [2]	MIC K. pneumoniae ATCC-BAA-2146 [3]	MIC K. pneumoniae CCUG-59348 [3]	MIC E. coli ATCC25922 [4]	MIC P. aeruginosa ATCC 27853 [5]	MIC K. pneumoniae ATCC 4352 [6]	MIC E. coli ATCC25922 [7]	MIC E. coli NCTC9001 ([7]; strain NCTC9001)	MIC K. pneumoniae NCTC 13438 [3]	MIC P. aeruginosa ATCCCRM-9027 [5]	MIC A. baumannii ATCCBAA-747 [8]	MIC A. baumannii NCTC 13423 [8]	MIC P. aeruginosa ATCC CRM-9027 [1]	MIC P. aeruginosa ATCC-47 ([1]; strain ATCC-47)	MIC A. baumannii CCUG57249 ([2]; strain CCUG57249)
CC(C)C[C@@H]1NC(=O)[C@@H](Cc2ccccc2)NC(=O)[C@H](CCN)NC(=O)[C@@H](NC(=O)[C@H](CCN)NC(=O)[C@@H](NC(=O)CC(C)O)C(C)O)CCNC(=O)[C@H](C(C)O)NC(=O)[C@H](CCN)NC(=O)[C@H](CCN)NC1=O (mixture of isomers) [Example 15, 3(RS)-3- Hydroxybutanoyl polymyxin B nonapeptide]	0.5 micrograms/mL	0.5 micrograms/mL	4 micrograms/mL	16 micrograms/mL	4 micrograms/mL	0.5 micrograms/mL	8 micrograms/mL	–	–	–	–	–	–	–	–	–
CC(C)C[C@@H]1NC(=O)[C@@H](CC(C)C)NC(=O)[C@H](CCN)NC(=O)[C@@H](NC(=O)[C@H](CCN)NC(=O)[C@@H](NC(=O)C(O)C2CCCCC2)C(C)O)CCNC(=O)[C@H](C(C)O)NC(=O)[C@H](CCN)NC(=O)[C@H](CCN)NC1=O (single isomer, unassigned; isomer 2) [Example 32, 2(RS)-(2-Hydroxy-2-cyclohexyl)ethanoyl polymyxin E nonapeptide, TFA salt. Isomer 2]	–	–	1 micrograms/mL	2 micrograms/mL	–	–	–	0.5 micrograms/mL	1 micrograms/mL	1 micrograms/mL	–	–	–	–	–	–
CC(C)C[C@@H]1NC(=O)[C@@H](Cc2ccccc2)NC(=O)[C@H](CCN)NC(=O)[C@@H](NC(=O)[C@H](CCN)NC(=O)[C@@H](NC(=O)CO)C(C)O)CCNC(=O)[C@H](C(C)O)NC(=O)[C@H](CCN)NC(=O)[C@H](CCN)NC1=O (stereo partly drawn) [Example 8, Hydroxyacetyl polymyxin B nonapeptide] (Glycolyl-[Thr(3ξ)][Dab][Dab][Dab][dF]L[Dab][Dab][Thr(3ξ)]; lactam 3-C)	0.25 micrograms/mL	0.5 micrograms/mL	2 micrograms/mL	8 micrograms/mL	32 micrograms/mL	0.25 micrograms/mL	8 micrograms/mL	–	–	–	–	–	–	–	–	–
CC(C)C[C@@H]1NC(=O)[C@@H](Cc2ccccc2)NC(=O)[C@H](CCN)NC(=O)[C@@H](NC(=O)[C@H](CCN)NC(=O)[C@@H](NC(=O)C2CCNC2)C(C)O)CCNC(=O)[C@H](C(C)O)NC(=O)[C@H](CCN)NC(=O)[C@H](CCN)NC1=O (stereo partly drawn) [Example 9, [3(R,S)-Pyrrolidine-3-carbonyl]polymyxin B nonapeptide] (X15-[Thr(3ξ)][Dab][Dab][Dab][dF]L[Dab][Dab][Thr(3ξ)]; lactam 3-C)	0.125 micrograms/mL	–	1 micrograms/mL	8 micrograms/mL	0.5 micrograms/mL	0.25 micrograms/mL	0.5 micrograms/mL	–	–	0.25 micrograms/mL	2 micrograms/mL	4 micrograms/mL	2 micrograms/mL	–	–	–
CC(C)C[C@@H]1NC(=O)[C@@H](Cc2ccccc2)NC(=O)[C@H](CCN)NC(=O)[C@@H](NC(=O)[C@H](CCN)NC(=O)[C@@H](NC(=O)CCCN(C)C)C(C)O)CCNC(=O)[C@H](C(C)O)NC(=O)[C@H](CCN)NC(=O)[C@H](CCN)NC1=O (stereo partly drawn) [Example 11, 4-(N,N-dimethylamino)-butanoyl polymyxin B nonapeptide] (X16-[Thr(3ξ)][Dab][Dab][Dab][dF]L[Dab][Dab][Thr(3ξ)]; lactam 3-C)	0.25 micrograms/mL	–	0.5 micrograms/mL	4 micrograms/mL	0.5 micrograms/mL	0.125 micrograms/mL	0.5 micrograms/mL	–	–	1 micrograms/mL	2 micrograms/mL	16 micrograms/mL	4 micrograms/mL	–	–	–
CNCCCC(=O)N[C@H](C(=O)N[C@@H](CCN)C(=O)N[C@H]1CCNC(=O)[C@H](C(C)O)NC(=O)[C@H](CCN)NC(=O)[C@H](CCN)NC(=O)[C@H](CC(C)C)NC(=O)[C@@H](Cc2ccccc2)NC(=O)[C@H](CCN)NC1=O)C(C)O (stereo partly drawn) [Example 16, 4-(N-methylamino)-butanoyl polymyxin B nonapeptide] (NMeGABA-[Thr(3ξ)][Dab][Dab][Dab][dF]L[Dab][Dab][Thr(3ξ)]; lactam 3-C)	0.125 micrograms/mL	0.125 micrograms/mL	–	–	0.5 micrograms/mL	0.25 micrograms/mL	0.5 micrograms/mL	–	–	0.5 micrograms/mL	–	–	–	0.125 micrograms/mL	–	–
CC(C)C[C@@H]1NC(=O)[C@@H](Cc2ccccc2)NC(=O)[C@H](CCN)NC(=O)[C@@H](NC(=O)[C@H](CCN)NC(=O)[C@@H](NC(=O)[C@H]2CC[C@@H](N)CC2)C(C)O)CCNC(=O)[C@H](C(C)O)NC(=O)[C@H](CCN)NC(=O)[C@H](CCN)NC1=O (stereo partly drawn) [Example 20, Cis-4-aminocyclohexane carbonyl polymyxin B nonapeptide] ({Cyclohexanoyl(cis-4-NH2)}-[Thr(3ξ)][Dab][Dab][Dab][dF]L[Dab][Dab][Thr(3ξ)]; lactam 3-C)	0.125 micrograms/mL	<0.06 micrograms/mL	0.25 micrograms/mL	4 micrograms/mL	2 micrograms/mL	0.125 micrograms/mL	0.125 micrograms/mL	–	–	0.25 micrograms/mL	–	–	–	–	0.125 micrograms/mL	≤0.06 micrograms/mL
CC(C)C[C@@H]1NC(=O)[C@@H](Cc2ccccc2)NC(=O)[C@H](CCN)NC(=O)[C@@H](NC(=O)[C@H](CCN)NC(=O)[C@@H](NC(=O)CC[C@H](C)N)C(C)O)CCNC(=O)[C@H](C(C)O)NC(=O)[C@H](CCN)NC(=O)[C@H](CCN)NC1=O (stereo partly drawn) [Example 24, 4S-aminopentanoyl polymyxin B nonapeptide] ({GABA(4S-Me)}-[Thr(3ξ)][Dab][Dab][Dab][dF]L[Dab][Dab][Thr(3ξ)]; lactam 3-C)	0.25 micrograms/mL	0.5 micrograms/mL	0.5 micrograms/mL	8 micrograms/mL	>32 micrograms/mL	0.25 micrograms/mL	0.5 micrograms/mL	–	–	–	–	–	–	–	–	–
CC(C)C[C@@H]1NC(=O)[C@@H](Cc2ccccc2)NC(=O)[C@H](CCN)NC(=O)[C@@H](NC(=O)[C@H](CCN)NC(=O)[C@@H](NC(=O)CCO)C(C)O)CCNC(=O)[C@H](C(C)O)NC(=O)[C@H](CCN)NC(=O)[C@H](CCN)NC1=O (stereo partly drawn) [Example 26, 3-Hydroxypropanoyl polymyxinB nonapeptide] ({Propanoyl(3-OH)}-[Thr(3ξ)][Dab][Dab][Dab][dF]L[Dab][Dab][Thr(3ξ)]; lactam 3-C)	0.25 micrograms/mL	0.5 micrograms/mL	2 micrograms/mL	8 micrograms/mL	>32 micrograms/mL	0.5 micrograms/mL	4 micrograms/mL	–	–	–	–	–	–	–	–	–
CC(C)C[C@@H]1NC(=O)[C@@H](Cc2ccccc2)NC(=O)[C@H](CCN)NC(=O)[C@@H](NC(=O)[C@H](CCN)NC(=O)[C@@H](NC(=O)[C@H]2CC[C@@H](N)C2)C(C)O)CCNC(=O)[C@H](C(C)O)NC(=O)[C@H](CCN)NC(=O)[C@H](CCN)NC1=O (stereo partly drawn) [Example 34B, (1S,3R)-3- Aminocyclopentane carbonyl polymyxin B nonapeptide] (X8-[Thr(3ξ)][Dab][Dab][Dab][dF]L[Dab][Dab][Thr(3ξ)]; lactam 3-C)	–	–	–	–	–	–	–	<0.06 micrograms/mL	–	–	–	–	–	0.25 micrograms/mL	–	–
